Experimental data reported in ChEMBL document CHEMBL5050844 (2019).

Columns and labels:
[1] = Induction of anti-CD3/CD28 antibodies-stimulated human T cell activation at 0.3 uM assessed fold increase in IL-2 secretion measured by ELISA assay; assay type: functional, T cell line
[2] = Induction of anti-CD3 antibodies-stimulated human CD8+ T cell activation in immunocompetent mouse assessed fold increase in CD25 expression at 135 mg/kg, po administered twice a day; assay type: functional; also: reference of the scale not given here
[3] = Induction of anti-CD3/CD28 antibodies-stimulated human T cell activation at 1 uM assessed fold increase in IL-2 secretion measured by ELISA assay; assay type: functional, T cell line
[4] = Induction of anti-CD3/CD28 antibodies-stimulated human T cell activation at 1.11 uM assessed fold increase in TNF-alpha secretion measured by ELISA assay; assay type: functional, T cell line
[5] = Induction of anti-CD3/CD28 antibodies-stimulated human T cell activation at 1 uM assessed fold increase in CD25 expression measured by ELISA assay; assay type: functional, T cell line
[6] = Induction of anti-CD3/CD28 antibodies-stimulated human T cell activation at 1.11 uM assessed fold increase in GM-CSF secretion measured by ELISA assay; assay type: functional, T cell line
[7] = Induction of anti-CD3/CD28 antibodies-stimulated human T cell activation at 4 uM assessed fold increase in CD25 expression measured by ELISA assay; assay type: functional, T cell line
[8] = Induction of anti-CD3 antibodies-stimulated human CD4+ T cell activation in immunocompetent mouse assessed fold increase in CD25 expression at 135 mg/kg, po administered twice a day; assay type: functional; also: reference of the scale not given here
[9] = Induction of anti-CD3 antibodies-stimulated human T cell activation at 10 uM assessed fold increase in TNF-alpha secretion measured by ELISA assay; assay type: functional, T cell line; also: reference of the scale not given here
[10] = molecular target: T1, E3 ubiquitin-protein ligase CBL-B (Homo sapiens, UniProt Q13191); experiment: Inhibition of N-terminal Avi-tagged human CBL-B (36 to 427 residues) incubated with 60 nM Src kinase for 1.5 hrs followed by incubation with fluorescently labeled UbcH5B-Ub for 1 hr and measured by TR-FRET assay; assay type: single protein
T1 sequence (Q13191 whole entry, the tested form may be a part): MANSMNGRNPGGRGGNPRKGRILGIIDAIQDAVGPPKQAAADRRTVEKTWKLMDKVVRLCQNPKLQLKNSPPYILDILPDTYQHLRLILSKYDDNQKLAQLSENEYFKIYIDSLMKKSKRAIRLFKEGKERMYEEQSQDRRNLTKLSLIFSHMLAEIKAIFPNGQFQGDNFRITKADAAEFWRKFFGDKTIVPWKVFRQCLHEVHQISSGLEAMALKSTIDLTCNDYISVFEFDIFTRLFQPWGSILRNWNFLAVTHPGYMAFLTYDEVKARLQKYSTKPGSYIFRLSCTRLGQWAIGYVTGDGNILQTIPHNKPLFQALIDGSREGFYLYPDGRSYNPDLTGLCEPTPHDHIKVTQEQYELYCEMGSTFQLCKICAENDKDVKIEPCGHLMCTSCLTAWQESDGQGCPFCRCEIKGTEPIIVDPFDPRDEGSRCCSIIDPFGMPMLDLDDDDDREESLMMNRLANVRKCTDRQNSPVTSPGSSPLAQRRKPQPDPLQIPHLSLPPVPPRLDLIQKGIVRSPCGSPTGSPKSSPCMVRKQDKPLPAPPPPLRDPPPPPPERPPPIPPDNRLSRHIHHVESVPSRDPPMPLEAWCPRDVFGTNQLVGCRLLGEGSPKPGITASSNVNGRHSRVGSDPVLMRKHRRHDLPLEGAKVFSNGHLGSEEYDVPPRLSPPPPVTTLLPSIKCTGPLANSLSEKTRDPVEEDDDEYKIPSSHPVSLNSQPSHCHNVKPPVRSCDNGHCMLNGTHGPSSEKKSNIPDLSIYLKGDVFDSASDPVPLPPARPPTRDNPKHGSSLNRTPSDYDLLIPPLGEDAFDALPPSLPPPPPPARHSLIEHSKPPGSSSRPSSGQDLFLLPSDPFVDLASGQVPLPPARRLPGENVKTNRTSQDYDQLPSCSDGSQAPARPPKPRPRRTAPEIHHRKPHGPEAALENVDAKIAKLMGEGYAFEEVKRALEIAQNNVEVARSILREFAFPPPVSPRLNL

[11] = Induction of anti-CD3 antibodies-stimulated human exhausted CD4+ T cell activation assessed fold increase in CTLA4 expression measured by flow cytometry analysis; assay type: functional, T cell line; also: reference of the scale not given here
[12] = Induction of anti-CD3 antibodies-stimulated human CD8+ T cell activation in immunocompetent mouse assessed fold increase in CD25 expression at 90 mg/kg, po administered twice a day; assay type: functional; also: reference of the scale not given here
[13] = Induction of anti-CD3 antibodies-stimulated human CD4+ T cell activation in immunocompetent mouse assessed fold increase in CD25 expression at 90 mg/kg, po administered twice a day; assay type: functional; also: reference of the scale not given here
[14] = Induction of anti-CD3 antibodies-stimulated human CD8+ T cell activation at 1.11 uM assessed fold increase in cell proliferation measured by flow cytometry analysis; assay type: functional, T cell line; also: reference of the scale not given here
[15] = Induction of anti-CD3 antibodies-stimulated human CD4+ T cell activation in immunocompetent mouse assessed fold increase in CD25 expression at 180 mg/kg, po administered twice a day; assay type: functional; also: reference of the scale not given here
[16] = Induction of activation of human CD56+ CD3- NK cells co-cultured with human K562 cells in 1:1 ratio and assessed as increase in IFN-gamma secretion at 0.625 uM measured by ELISA assay; assay type: functional, Natural killer cell
[17] = Induction of anti-CD3/CD28 antibodies-stimulated human T cell activation at 10 uM assessed fold increase in GM-CSF secretion measured by ELISA assay; assay type: functional, T cell line
[18] = Induction of anti-CD3 antibodies-stimulated human CD8+ T cell activation in immunocompetent mouse assessed fold increase in CD25 expression at 180 mg/kg, po administered twice a day; assay type: functional; also: reference of the scale not given here
[19] = Induction of anti-CD3 antibodies-stimulated human exhausted T cell activation assessed fold increase in IFN-gamma secretion measured by ELISA assay; assay type: functional, T cell line; also: reference of the scale not given here
[20] = Induction of allogenic human T cell activation at 3 uM assessed fold increase in cell proliferation; assay type: functional, T cell line
[21] = Induction of anti-CD3 antibodies-stimulated human CD8+ T cell activation in immunocompetent mouse assessed fold increase in CD25 expression at 90 mg/kg, ip administered thrice a day; assay type: functional; also: reference of the scale not given here
[22] = Induction of anti-CD3/CD28 antibodies-stimulated human CD8+ T cell activation at 10 uM assessed fold increase in CD69 expression measured by flow cytometry analysis; assay type: functional, T cell line
[23] = Induction of anti-CD3 antibodies-stimulated human exhausted T cell activation assessed fold increase in GM-CSF secretion measured by ELISA assay; assay type: functional, T cell line; also: reference of the scale not given here
[24] = molecular target: T1, E3 ubiquitin-protein ligase CBL-B; experiment: Binding affinity towards N-terminal biotinylated Avi-tagged human CBL-B (36 to 427 residues) measured by surface plasmon resonance assay

SMILES | fold change (FC) [1] | fold change (FC) [2] | fold change (FC) [3] | fold change (FC) [4] | fold change (FC) [5] | fold change (FC) [6] | fold change (FC) [7] | fold change (FC) [8] | fold change (FC) [9] | IC50 [10] | fold change (FC) [11] | fold change (FC) [12] | fold change (FC) [14] | fold change (FC) [16] | fold change (FC) [17] | fold change (FC) [19] | fold change (FC) [20] | fold change (FC) [22] | fold change (FC) [23] | Kd [24] | further results
C[C@@H](c1cc2c(c(C(F)(F)F)c1)CN(c1cccc(C3(Cc4nncn4C)COC3)c1)C2=O)N1CC[C@H](F)C1 | >=7.5 | 2.01 | >=7.5 | 2.01 | 1.51 | >4 | 1.51 | 1.51 | 2.01 | < 100 nM | <=1.4 | 1.51 | >4 | 2.01 | >4 | >1.61 | >3 | 1.201 | 1.41 | – | fold change (FC) [13]: 1; fold change (FC) [15]: 2.01; fold change (FC) [18]: 1; fold change (FC) [21]: 1
Cn1cnnc1[C@@H]1C[C@@H]1c1cccc(N2Cc3c(cccc3C(F)(F)F)C2=O)c1 | <=1 | 1 | 1.01 | <=1.5 | >=1.76 | 1.51 | >=1.76 | 1.51 | <=1.5 | – | <=1.4 | 1 | <=2 | 2.01 | 2.01 | 1.41 | <=2 | 1.201 | <=1.4 | – | fold change (FC) [13]: 1; fold change (FC) [15]: 2.01; fold change (FC) [18]: 1; fold change (FC) [21]: 1
Cn1cnnc1CC1(c2cccc(NC(=O)c3nc4c(C(F)(F)F)cccc4[nH]3)c2)COC1 | 2.51 | – | 5 | 1.51 | 1.51 | 1.51 | 1.51 | – | 1.51 | < 100 nM | >1.61 | – | >4 | 2.01 | >4 | 1.41 | <=2 | 1.201 | <=1.4 | < 100 nM | –
C[C@H](Cc1nncn1C)c1cccc(N2Cc3c(cc(CN4CC(C)(O)C4)cc3C(F)(F)F)C2=O)c1 | 2.51 | – | >=7.5 | 2.01 | 1.31 | 2.01 | 1.31 | – | 1.51 | < 100 nM | >1.61 | – | >4 | 2.01 | >4 | >1.61 | <=2 | 1.201 | 1.41 | < 100 nM | –
COC1CN(Cc2cc3c(c(C(F)(F)F)c2)CN(c2cccc([C@@](C)(F)C(F)(F)c4nncn4C)c2)C3=O)C1 | 2.51 | – | 5 | 1.51 | 1.31 | 2.01 | 1.31 | – | 1.51 | < 100 nM | >1.61 | – | 3.01 | 2.01 | 2.01 | >1.61 | <=2 | 1.201 | >1.61 | < 100 nM | –
C[C@H](Cc1nncn1C)c1cccc(N2Cc3c(cc(CN4CC(O)C4)cc3C(F)(F)F)C2=O)c1 | 2.51 | – | >=7.5 | <=1.5 | 1.31 | <=1.5 | 1.31 | – | <=1.5 | < 100 nM | >1.61 | – | <=2 | 2.01 | 1.51 | >1.61 | <=2 | <=1.2 | 1.41 | < 100 nM | –
C[C@H](c1cc2c(c(C(F)(F)F)c1)CN(c1cccc(C3(Cc4nncn4C)COC3)c1)C2=O)N1CC[C@H](F)C1 | 5 | 1 | >=7.5 | 2.01 | 1.51 | 2.01 | 1.31 | 1 | 1.51 | < 100 nM | >1.61 | 1 | 3.01 | 2.01 | >4 | >1.61 | 2.01 | 1.201 | >1.61 | – | fold change (FC) [13]: 1; fold change (FC) [15]: 1; fold change (FC) [18]: 1; fold change (FC) [21]: 1
Cn1cnnc1C(F)(F)C(C)(F)c1cccc(N2Cc3c(cc(CN4CC[C@@H](F)C4)cc3C(F)(F)F)C2=O)c1 (single isomer, unassigned) | 2.51 | – | >=7.5 | 2.01 | 1.51 | 2.01 | 1.51 | – | 1.51 | < 100 nM | >1.61 | – | >4 | 2.01 | >4 | >1.61 | <=2 | 1.201 | 1.41 | < 100 nM | –
Cn1cnnc1CC1(c2cccc(N3Cc4c(cc(CN5CC(F)C5)cc4C(F)(F)F)C3=O)c2)COC1 | 5 | <1 | >=7.5 | 2.01 | 1.31 | 2.01 | 1.51 | 1 | 1.51 | < 100 nM | >1.61 | 1 | >4 | 2.01 | >4 | >1.61 | 2.01 | 1.201 | >1.61 | – | fold change (FC) [13]: 1; fold change (FC) [15]: 1; fold change (FC) [18]: <1; fold change (FC) [21]: 1
C[C@H](Cc1nncn1C)c1cccc(NC(=O)c2cc3cc(N4CCNCC4)ccc3cn2)c1.Cl | <=1 | – | 1.01 | 1.51 | 1.01 | 1.51 | 1.01 | – | <=1.5 | < 100 nM | 1.41 | – | 2.01 | 1.01 | 2.01 | >1.61 | <=2 | 1.201 | <=1.4 | < 100 nM | –
